Here are results for three compounds from article PMC9188596, “Structural basis of resistance to herbicides that target acetohydroxyacid synthase” (Nature Communications, 2022).

Broadly, the Ki is the equilibrium dissociation constant of an inhibitor or competing ligand from its target. Higher therefore signals a looser hold on the target. For orientation: inhibition means the change of the read-out against control, counted positive when it falls.

In assay [1] the target is T1, WT AtAHAS (Arabidopsis thaliana, UniProt P17597). Briefly: Ki of herbicides, continuous spectrophotometric AHAS assay. It counts as biochemical. The protocol:
(§1) Standard assays were performed using a continuous spectrophotometric method measuring the disappearance of pyruvate. The standard buffer contained 50 mM potassium phosphate, pH 7.2, 1 mM ThDP, 10 mM MgCl2, and 10 µM FAD. The concentration of pyruvate was in the range 100–160 mM, as described in the text, methods, or figure legends.
(§2) Supplementary Figure 6. Measurement of the Ki values for WT AtAHAS and the mutants.
(§3) The error bars represent the standard error of the mean of two independent replicates. [I] =
(§4) inhibitor concentration. Source data are provided with this paper.
(§5) (1 picture or pasted object on this page, not shown here)

For assay [2], the target named is T2, AtAHAS P197L mutant (Arabidopsis thaliana, UniProt P17597, P197L). Briefly: biochemical. The procedure:
as §1, §2, §3, §4, §5

Assay [3] addresses T3, AtAHAS P197T mutant (Arabidopsis thaliana, UniProt P17597, P197T). Briefly: biochemical. The procedure:
as §1, §2, §3, §4, §5

Assay [4] addresses T4, AtAHAS S653T mutant (Arabidopsis thaliana, UniProt P17597, S653T). The experiment in a line: biochemical. The protocol:
as §1, §2, §3, §4, §5

The target of assay [5] is T5, AtAHAS W574L mutant (Arabidopsis thaliana, UniProt P17597, W574L). Briefly: biochemical. The protocol: as §1, §2, §3, §4, §5
Assay [6] concerns the target T1, WT AtAHAS. It counts as biochemical. The procedure: as §1
(§6) AtAHAS was assayed in the standard assay buffer containing 160 mM pyruvate, at 30 °C. For AtAHAS activation the progress curve corresponding to the lag-phase was fitted to Eq. (8) of Lonhienne et al.[14]. For the time dependent accumulative inhibition of AtAHAS the progress curves were fitted to Equation 9 of Lonhienne et al.[12].
Supplementary Figure 8. Measurement of the rate constants of accumulative inhibition for WT AtAHAS and its mutants. The progress curves were fitted to the equation of accumulative inhibition (Equation 7 2). The rate constants of enzyme inactivation ( kiapp) and enzyme recovery (k3) were measured in triplicate. Source data are provided with this paper.

Assay [7] addresses T2, AtAHAS P197L mutant. It counts as biochemical. Particulars: NAI = no accumulative inhibition detected. The protocol: as §1, §6
(§7) Supplementary Figure 8. Measurement of the rate constants of accumulative inhibition for WT AtAHAS and its mutants. The progress curves were fitted to the equation of accumulative inhibition (Equation 7 2). The rate constants of enzyme inactivation ( kiapp) and enzyme recovery (k3) were measured in triplicate. Source data are provided with this paper. […]

Assay [8] concerns the target T3, AtAHAS P197T mutant. It is filed as biochemical. Conditions: P197T, NAI = no accumulative inhibition detected. The procedure:
as §1, §6, §7

For assay [9], the target named is T4, AtAHAS S653T mutant. It is filed as biochemical. The protocol:
as §1, §6, §7

The target in assay [10] is T5, AtAHAS W574L mutant. It is filed as biochemical. Particulars: NAI = no accumulative inhibition detected. The procedure:
as §1, §6, §7

Assay [11] deals with T2, AtAHAS P197L mutant. Briefly: Inhibition of AHAS activity by ubiquinone Q0. Conditions: read-out: % inhibition of AHAS activity by 0.5 mM Q0. It counts as biochemical. The protocol:
(§8) Next, we investigated how the mutants responded to regulation by redox signaling molecules using ubiquinone Q0 (Q0) as an example[14].
(§9) Supplementary Figure 5. Inhibition of WT AtAHAS and the mutants by Q0. AtAHAS was incubated with 100 mM pyruvate at 30°C. After reaching full activation, the inhibition reaction was initiated by addition of 0.5 mM Q0 to the sample cell. After seven minutes incubation with Q0, 1 mM DTT was added to reduce the remaining Q0, triggering re-activation of the enzyme.
(§10) Source data are provided with this paper.
as §5

For assay [12], the target named is T3, AtAHAS P197T mutant. Briefly: Inhibition of AHAS activity by ubiquinone Q0. It is filed as biochemical. Particulars: read-out: % inhibition of AHAS activity by 0.5 mM Q0. The procedure:
as §8, §9, §10, §5

Assay [13] has as its target T4, AtAHAS S653T mutant. Briefly: Inhibition of AHAS activity by ubiquinone Q0. It is filed as biochemical. Conditions: read-out: % inhibition of AHAS activity by 0.5 mM Q0. The protocol: as §8, §9, §10, §5
The target in assay [14] is T5, AtAHAS W574L mutant. The experiment in a line: Inhibition of AHAS activity by ubiquinone Q0. It is filed as biochemical. Conditions: read-out: % inhibition of AHAS activity by 0.5 mM Q0. The procedure: as §8, §9, §10, §5
Assay [15] concerns the target T1, WT AtAHAS. The experiment in a line: Inhibition of AHAS activity by ubiquinone Q0. It counts as biochemical. Particulars: read-out: % inhibition of AHAS activity by 0.5 mM Q0. The procedure: as §8, §9, §10, §5
[16] abbreviates: Ki, WT AtAHAS, ± standard error of the mean.
[17] abbreviates: Ki (Supplementary Figure 6), P197L, fit of % activity remaining vs [I], two independent replicates.
Setting [18] is: Ki, P197L mutant, ± standard error of the mean.
[19] abbreviates: Ki (Supplementary Figure 6), P197T, fit of % activity remaining vs [I], two independent replicates.
Setting [20] is: Ki, P197T mutant, ± standard error of the mean.
Setting [21] is: Ki, S653T mutant, ± standard error of the mean.
The mark [22] stands for this setting: Ki, W574L mutant, ± standard error of the mean.
The mark [23] stands for this setting: individual replicate of triplicate.
[24] abbreviates: S653T, individual replicate of triplicate.

Where “and” joins values, the source holds several entries; their conditions need not be identical. Equal entries are not always repeated.

As for `COc1cc(OC)nc(NC(=O)NS(=O)(=O)N(C)S(C)(=O)=O)n1` [AS, amidosulfuron], the Ki was 4200 ± 600 nM at WT AtAHAS [1] (setting [16]); 93500 ± 17100 nM on AtAHAS P197L mutant [2] (setting [17]); 93500 ± 17100 nM on AtAHAS P197L mutant [2] (setting [18]); 61400 ± 8920 nM at AtAHAS P197T mutant [3] (setting [19]); 61400 ± 8900 nM at AtAHAS P197T mutant [3] (setting [20]); 492 ± 25 nM at AtAHAS S653T mutant [4] (setting [21]). In addition, the Ki at AtAHAS W574L mutant [5] (Ki (Supplementary Figure 6), W574L, fit of % activity remaining vs [I], two independent replicates) is 871000 ± 66500 nM; at AtAHAS W574L mutant [5] (setting [22]), 870000 ± 60000 nM. The “kiapp/k3 (efficiency of accumulative inhibition)” value is recorded as 20 at WT AtAHAS [6]; “NAI” on AtAHAS P197L mutant [7]; “NAI” on AtAHAS P197T mutant [8]; 95 at AtAHAS S653T mutant [9] (S653T); “NAI” on AtAHAS W574L mutant [10]. In addition, the “k3 (rate of recovery)” value is 0.02 ± 0.001 min⁻¹ at WT AtAHAS [6] (160 mM pyruvate, 30 °C, ± SEM); “NAI” at AtAHAS P197L mutant [7] (160 mM pyruvate, 30 °C); “NAI” on AtAHAS P197T mutant [8] (160 mM pyruvate, 30 °C); 0.02 ± 0.002 min⁻¹ at AtAHAS S653T mutant [9] (S653T, 160 mM pyruvate, 30 °C, ± SEM); “NAI” at AtAHAS W574L mutant [10] (160 mM pyruvate, 30 °C). Also, the “kiapp (apparent rate of enzyme inactivation)” value on WT AtAHAS [6] (160 mM pyruvate, 30 °C, ± SEM) was 0.39 ± 0.06 min⁻¹; at AtAHAS P197L mutant [7] (160 mM pyruvate, 30 °C), “NAI”; at AtAHAS P197T mutant [8] (160 mM pyruvate, 30 °C) it was “NAI”; on AtAHAS W574L mutant [10] (160 mM pyruvate, 30 °C), “NAI”. Moreover, the “k3, single progress curve (Supplementary Figure 8)” value on WT AtAHAS [6] (setting [23]) was 0.021 min-1 and 0.02 min-1 (2×); at AtAHAS S653T mutant [9] (setting [24]) it was 0.02 min⁻¹ and 0.023 min⁻¹ and 0.021 min⁻¹. For the same compound, the “kiapp, single progress curve (Supplementary Figure 8)” value is 0.34 min⁻¹ and 0.46 min⁻¹ and 0.36 min⁻¹ at WT AtAHAS [6] (setting [23]); 1.93 min⁻¹ and 1.94 min⁻¹ and 2.21 min⁻¹ on AtAHAS S653T mutant [9] (setting [24]). For the same compound, the “efficiency of accumulative inhibition (kiapp/k3) compared to WT (in words)” value at AtAHAS S653T mutant [9] (S653T vs WT) is on record as “increased”.
As to `COc1cc(OC)n2nc(S(=O)(=O)Nc3c(Cl)ccc(C)c3Cl)nc2n1` [MT, metosulam], the Ki stood at 28.7 ± 11.2 nM on WT AtAHAS [1] (Ki (Supplementary Figure 6), Wild type AtAHAS, fit of % activity remaining vs [I], two independent replicates); 29 ± 11.2 nM on WT AtAHAS [1] (setting [16]); 1320 ± 131 nM on AtAHAS P197L mutant [2] (setting [17]); 1320 ± 130 nM on AtAHAS P197L mutant [2] (setting [18]); 1130 ± 130 nM on AtAHAS P197T mutant [3] (setting [19]); 1130 ± 130 nM at AtAHAS P197T mutant [3] (setting [20]). The Ki at AtAHAS S653T mutant [4] (Ki (Supplementary Figure 6), S653T, fit of % activity remaining vs [I], two independent replicates) turned out to be 66 ± 5.64 nM; at AtAHAS S653T mutant [4] (setting [21]), 66 ± 5.6 nM; at AtAHAS W574L mutant [5] (setting [22]), 39300 ± 3900 nM.
Turning to `COC1=C(OC)C(=O)C(C)=CC1=O` [Q0, ubiquinone Q0], the inhibition at 500 µM stood at 89% on AtAHAS P197L mutant [11]; 91% at AtAHAS P197T mutant [12]; 85% on AtAHAS S653T mutant [13]; 97% on AtAHAS W574L mutant [14]; 82% at WT AtAHAS [15].
